The target of one experiment is LmrR. Also noted: method as in Takeuchi et al. (SI ref 3, main ref 21). The settings on record: 25 °C, SPR, ref Takeuchi et al. (SI ref 3, main ref 21); cited from earlier work.
Experiment [1] has as its target T1, RibU W97Y (Lactococcus lactis subsp. cremoris, UniProt D8KIE9, W97Y).
T1 construct: His10; made in house; host or cells: Lactococcus lactis Trp auxotroph NZ9000-trp with pMG36e-trpRS
The experiment is described as follows: Fluorescence titration of RibU with RBF, natural Trp (W). It is filed as binding. On the procedure: (§1) Fluorescence titration experiments of the different RibU constructs with RBF at 20 °C allowed estimation of the impact of W68 fluorination or 5-methylation on the binding affinity (Figure 3 and Table 5).
(§2) Figure 3 Titration of Trp analog labeled RibU W97Y proteins with RBF. The RBF fluorescence was measured at the indicated RBF concentrations in the absence (triangles) or presence (dots) of the W97Y RibU variant (see insets). The difference between these two signals were calculated to build the titration curve. This curve was used to compute the RBF Kd (see Experimental Section in the Supporting Information). Panels from left to right present the results for RibU W97Y, labeled with 5MeW, 5FW, 5,7diFW, and 5,6,7triFW, respectively.
(§3) Binding assays – Fluorescence titrations of RibU with RBF.
(§4) The concentration of the riboflavin stock was established using a Jasco V-650 spectrophotometer with an ε435 of 12600 M-1.cm-1 The concentration of RibU-His was calculated using a Nanodrop (Thermo […]
(§5) Riboflavin was excited at 435 nm and emission was recorded between 450 nm and 700 nm using a FluoroLog 322 Spectrofluorometer (Jobin Yvon). The excitation and emission s lits were set at 1.1 nm and 3.5 nm, respectively. Titration experiments were performed in a 1 mL quartz cuvette at 20 °C as described.13 In brief, purified and desalted RibU protein in gel filtration buffer was titrated with RBF and after each addition the emission spectrum was recorded twice, corrected for buffer emission and instrument response and integrated. The integrated emission intensities were corrected for dilution and compared to the integrated emission of riboflavin collected under these conditions in the absence […]
(§6) The Kd of RBF was derived by first determining the difference in fluorescence signal between the blan k titration with only the gel filtration buffer and the titration using the protein RibU -His in buffer. The obtained curve was fitted using equation I and the program OriginLab16 with n = number of binding sites, X = total RibU concentration, and S = maximal fluorescence signal in A.U. […]

Experiment [2] relates to RibU W97Y. The experiment is described as above. It is filed as binding, Lactococcus lactis. The settings on record: extrapolation to RibU labeled with tetrafluoroTrp. As for the experimental part:
as §1, §2, §3, §4, §5, §6

The target of the next experiment is RibU. Also noted: method as in PMID 17289680. Particulars: cited from earlier work.
Experiment [3] addresses T2, RibU W97Y labeled with 5MeW (Lactococcus lactis subsp. cremoris, UniProt D8KIE9, W97Y).
T2 construct: His10; made in house; host or cells: Lactococcus lactis Trp auxotroph NZ9000-trp with pMG36e-trpRS
Briefly: Fluorescence titration of RibU with RBF, 5MeW variant. It is filed as binding. On the procedure: as §1
Figure 3 Titration of Trp analog labeled RibU W97Y proteins with RBF. The RBF fluorescence was measured at the indicated RBF concentrations in the absence (triangles) or presence (dots) of the W97Y RibU variant (see insets). The difference between these two signals were calculated to build the titration curve. This curve was used to compute the RBF Kd (see Experimental Section in the Supporting Information). […]
as §3, §4
Riboflavin was excited at 435 nm and emission was recorded between 450 nm and 700 nm using a FluoroLog 322 Spectrofluorometer (Jobin Yvon). […] Titration experiments were performed in a 1 mL quartz cuvette at 20 °C as described.13 In brief, purified and desalted RibU protein in gel filtration buffer was titrated with RBF and after each addition the emission spectrum was recorded twice, corrected for buffer emission and instrument response and integrated. […]

Each structure is given as a SMILES string.

T1 sequence (D8KIE9 whole entry W97Y): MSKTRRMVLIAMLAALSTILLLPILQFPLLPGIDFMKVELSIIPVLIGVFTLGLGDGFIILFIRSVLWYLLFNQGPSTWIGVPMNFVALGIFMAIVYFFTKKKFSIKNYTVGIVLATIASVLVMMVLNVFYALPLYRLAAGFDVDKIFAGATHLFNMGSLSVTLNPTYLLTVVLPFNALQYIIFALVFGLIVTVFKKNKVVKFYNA
T2 sequence (D8KIE9 whole entry W97Y): as above

For orientation: Kd means the equilibrium constant for the complex coming apart. Take `COc1cccc2c1C(=O)c1c(O)c3c(c(O)c1C2=O)C[C@@](O)(C(C)=O)C[C@@H]3O[C@H]1C[C@H](N)[C@H](O)[C@H](C)O1` [Dau, Daunomycin]: on LmrR, the equilibrium dissociation constant (Kd) is 350 nM.
As to `Cc1cc2nc3c(=O)[nH]c(=O)nc-3n(C[C@H](O)[C@H](O)[C@H](O)CO)c2cc1C` [RBF, riboflavin], the Kd was 1.8 ± 0.8 nM at RibU W97Y [1], approximately 1 nM on RibU and 1.2 ± 0.1 nM in experiment [3]. In addition, the “Electrostatic contribution of W68 as share of total RBF binding energy” value on RibU W97Y [1] (RibU containing natural Trp) is recorded as 15–20%. Besides, in the experiment with RibU W97Y [2], the “Lowering of ΔG for RBF binding” value was approximately 1.9 kcal/mol.

The record behind these values is PMC9354243, “The Role of Tryptophan in π Interactions in Proteins: An Experimental Approach” (Journal of the American Chemical Society, 2022).
